This passage reports cellular uptake results from publication PMC6598645 (Chemical Science, 2019).

The subject of this assay is HeLa cells. Nature of the assay: Cellular uptake of CF-labelled peptides, confocal imaging. The assay is classed as cell-based. Conditions: 10 μM mixture of 10% fluorescein (CF) labelled and 90% non-labelled peptides, three hours, 37°C, confocal microscopy.

*1 amine or outer side, *2 acyl side, *3 side chain or, on linkers, in order; H or OH if unused. Where a SMILES comes first, the peptide text is derived from it. Bridges are numbered along the chain shown (N, C = ends). [ ]: non-standard residue; d: D form. X2 = O=C([C@H](CCNP(=O)(CC[*:3])OCc1ccccc1)N[*:1])[*:2]; Nle = CCCC[C@H](N)C(=O)O

For the compound `CCCC[C@H](NC(=O)[C@H](CCCNC(=N)N)NC(=O)[C@H](CCC(N)=O)NC(=O)[C@@H](NC(=O)[C@H]1CSCCP(=O)(OCc2ccccc2)NCC[C@H](NC(=O)[C@H](CC(C)C)NC(=O)[C@H](CO)NC(=O)[C@H](CCCNC(=N)N)NC(=O)[C@H](CCC(=O)O)NC(=O)[C@H](CCCNC(=N)N)NC(=O)[C@H](Cc2c[nH]cn2)NC(=O)[C@H](CCC(=O)O)NC(=O)[C@H](CC(C)C)NC(=O)[C@H](CCC(N)=O)NC(=O)[C@H](CCC(=O)O)NC(=O)[C@H](CCC(N)=O)NC(=O)[C@H](CO)NC(=O)[C@H](CC(C)C)NC(C)=O)C(=O)N[C@@H]([C@@H](C)O)C(=O)N[C@@H](CC(C)C)C(=O)N[C@@H](CCCNC(=N)N)C(=O)N1)[C@@H](C)CC)C(=O)N[C@@H](CC(C)C)C(=O)N[C@@H](Cc1ccccc1)C(N)=O` (stereo partly drawn) [compound 13, cyclic-benzylphosphonamidate-BCL9-Nle-Aha-DCys peptide] (Ac-LSQEQLEHRERSL[X2]TLR[dC]IQR[Nle]LF-NH2; thioether 14-18; N-terminus and C-terminus assumed), the cellular uptake entry is “increased cellular uptake”.
For “AcLSQEQLEHRERSL TLR IQRNMLFNH2 (sidechain bridge or staple) [compound 7, RCM-BCL9-Nle peptide]” the value was “taken up readily”.
